Results as given in patent US11591288B2, “Compositions and methods for treating atherosclerotic cardiovascular disease” (GAVISH-GALILEE BIO APPLICATIONS LTD., priority 2017, dated 2023).

Legend:
J774A.1 macrophages = experiment: APOA1-mediated cholesterol efflux from macrophage cells; assay type: cell-based, murine
Method: J774A.1 cells were incubated for 4 h with RPMI buffer (media), APOA1 (10 μg) preincubated with DMSO or with lyso-DGTS (at final concentration of 10, 20, 50, and 100 μg/ml) for 2 h. Fluorescence was measured in media and cells at excitation/emission 482/515 nm. The cholesterol efflux was expressed as % efflux elicited by cells. Each experiment was repeated separately at least three times. *p<0.05, ***p<0.0001 relative to the control (APOA1 incubated with DMSO; n=3). Statistical analysis by one-way ANOVA and Graphpad prism 5 software.
APOA1 was incubated with lyso-DGTS at different concentrations (0, 10, 20, 50, and 100 μg/ml), and its ability to remove cholesterol from J774A.1 macrophages was measured by fluorometric assay (cell-based Cholesterol Efflux Fluorometric Assay Kit) and expressed as % of cholesterol efflux.

HDL = experiment: HDL-lyso-DGTS interaction, Trp fluorescence quenching; assay type: binding, human
Method: FIGS. 10A-10B show tryptophan fluorescence spectra of HDL (0.03 mg/ml) incubated with/without lyso-DGTS at various concentrations (1, 5, 10, 25, 50, 75, and 100 μg/ml) in black 96-well plates for 4 h at 37° C. (10A) or 25° C. (10B). The fluorescence was measured at excitation/emission 290/320-340 nm. The ability of lyso-DGTS to elevate HDL activity correlates with its binding affinity to HDL. Each experiment repeated separately at least three times.
HDL and LDL were isolated from human plasma samples by discontinuous density gradient ultracentrifugation and dialyzed against saline containing sodium ethylenediaminetetraacetic acid (EDTA; 1 mmol/L) to protect the lipoproteins against oxidation. Before generating the experiments, LDL and HDL were dialyzed twice, for 1 h each time, and once more overnight against PBS at 4° C. to remove EDTA.
In order to test whether the protective effect of lyso-DGTS on HDL occurs via specific interaction between lyso-DGTS and the lipoprotein, the HDL-lyso-DGTS interaction was investigated by the Trp-fluorescence-quenching method. […] (FIG. 10A) and 25° C. (FIG. 10B) in the 300-450 nm range with an excitation wavelength of 290 nm. Lyso-DGTS quenched HDL fluorescence in a dose-dependent manner at both temperatures.
Quenching pathways can be described by the Stem-Volmer equation (eq. 1 above). The Stern-Volmer curve was linear at the tested concentration of lyso-DGTS at both temperatures (with R>0.99 and p<0.0001). The Ksv values were (5.59±0.42)×10^3 M^−1 at 37° C. (FIG. 11A) and (4.83±0.59)×10^3 M^−1 at 25° C.
The binding constant and binding sites were calculated as shown for rePON1, using eq. 2 above. […] (FIG. 11D). The values obtained for n were not affected by temperature and were equal to 1 (Table 5). The thermodynamic parameters: enthalpy (ΔH), entropy (ΔS), and free energy (ΔG) were calculated to characterize the HDL-lyso-DGTS interaction type.

CC/C=C\C/C=C\C/C=C\C/C=C\C/C=C\CCCC(=O)OCC(O)COCCC(C(=O)[O-])[N+](C)(C)C (stereo not drawn) [lyso-DGTS, lyso-diacylglyceryltrimethylhornmoserine]
APOA1-mediated cholesterol efflux (J774A.1 macrophages; APOA1+50 μg/ml lyso-DGTS, p<0.05): ~25% | APOA1-mediated cholesterol efflux (J774A.1 macrophages; APOA1+100 μg/ml lyso-DGTS, p<0.0001): ~35% | Stern-Volmer quenching constant Ksv, HDL (HDL; 25° C.): (4.83±0.59)×10^3 M^−1 | Stern-Volmer quenching constant Ksv, HDL (HDL; 37° C.): (5.59±0.42)×10^3 M^−1 | Binding constant Ka, lyso-DGTS-HDL (HDL; 298 K (25° C.)): 3780 M⁻¹ | Binding constant Ka, lyso-DGTS-HDL (HDL; 310 K (37° C.)): 21650 M⁻¹
